Experimental data from patent publication US11225503B2, “Crystobactamides” (HELMHOLTZ-ZENTRUM FÜR INFEKTIONSFORSCHUNG GMBH, priority 2013, dated 2022).
In brackets after ≈: the same amount, converted by molar mass.

Columns and labels:
Type in all cases: cell-based
[1] = test system: several microorganisms and cell lines; test: Biological evaluation, summary statements over the MIC and cytotoxicity tests
Protocol: (§1) Cells were seeded at 6×10^3 cells per well of 96-well plates (Corning CellBind®) in complete medium (180 μl) and directly treated with cystobactamides dissolved in methanol in a serial dilution. Compound were tested in duplicate for 5 d, as well as the internal solvent control. After 5 d incubation, 5 mg/ml MTT in PBS (20 μL) was added per well and it was further incubated for 2 h at 37° C.[7] The medium was then discarded and cells were washed with PBS (100 μl) before adding 2-propanol/10N HCl (250:1, v/v; 100 μl) in order to dissolve formazan granules. The absorbance at 570 nm was measured using a microplate reader (EL808, Bio-Tek Instruments Inc.).
(§2) MIC values were determined in microdilution assays. Overnight cultures were diluted in the appropriate growth medium to achieve an inoculum of 10^4-10^6 cfu/mL. Yeasts were grown in Myc medium (1% phytone peptone, 1% glucose, 50 mM HEPES, pH 7.0), S. pneumonia and E. faecalis in tryptic soy broth (TSB: 1.7% peptone casein, 0.3% peptone soymeal, 0.25% glucose, 0.5% NaCl, 0.25% K2HPO4; pH 7.3); M. smegmatis in Middlebrook 7H9 medium supplemented with 10% Middlebrook ADC enrichment and 2 ml/l glycerol). All other listed bacteria were grown in Müller-Hinton broth (0.2% beef infusion solids, 1.75% casein hydrolysate, 0.15% starch, pH 7.4). Cystobactamides and reference drugs were added directly to the cultures in sterile 96-well plates as duplicates and serial dilutions were prepared. Microorganisms were grown on a microplate shaker (750 rpm, 30-37° C., 18-48 h), except S. pneumonia, which was grown at non-shaking conditions (37° C., 5% CO2, 18 h). Growth inhibition was assessed by visual inspection and the MIC was defined as the lowest concentration of compound that inhibited visible growth.

[2] = test system: Human HCT-116 colon carcinoma cells
Protocol: (§3) Human HCT-116 colon carcinoma cells (CCL-247) were obtained from the American Type Culture Collection (ATCC) and Chinese hamster ovary CHO-K1 cells (ACC-110) were obtained from the German Collection of Microorganisms and Cell Cultures (DSMZ). Both cell lines were cultured under the conditions recommended by the respective depositor. Primary HUVEC (human umbilical vein endothelial cells; single donor) were purchased from PromoCell (Heidelberg, Germany) and cultured in Endothelial Cell Growth Medium (PromoCell) containing the following supplements: 2% FCS, 0.4% ECGS, 0.1 ng/ml EGF, 1 ng/ml bFGF, 90 μg/ml heparin, 1 μg/ml hydrocortisone.
as §1

[3] = test system: Primary HUVEC (human umbilical vein endothelial cells)
Protocol: as §3, §1

[4] = test system: Chromobacterium violaceum DSM-30191; test: Susceptibility testing, MIC microdilution; conditions: Chromobacterium violaceum DSM-30191
Protocol: (§4) Bacterial wildtype strains used in susceptibility assays were either part of our strain collection or purchased from the German Collection of Microorganisms and Cell Cultures (DSMZ) or from the American Type Culture Collection (ATCC). E. coli strain WT^[6] and E. coli mutants were kindly provided by Prof. Dr. P. Heisig, Pharmaceutical Biology and Microbiology, University of Hamburg.
as §2

[5] = test system: Micrococcus luteus DSM-1790; test: Susceptibility testing, MIC microdilution; conditions: Micrococcus luteus DSM-1790
Protocol: as §4, §2

[6] = test system: Klebsiella pneumoniae DSM-30104; test: Susceptibility testing, MIC microdilution; conditions: Klebsiella pneumoniae DSM-30104
Protocol: as §4, §2

[7] = test system: Escherichia coli ATCC35218; test: Susceptibility testing, MIC microdilution
Protocol: as §4, §2

[8] = test system: Pseudomonas aeruginosa ATCC27853; test: Susceptibility testing, MIC microdilution
Protocol: as §4, §2

Pichia anomala DSM-6766 = test: Susceptibility testing, MIC microdilution; conditions: Pichia anomala DSM-6766
Protocol: as §4, §2

[9] = test system: Escherichia coli DSM-12242 (NAL^R); test: Susceptibility testing, MIC microdilution; conditions: Escherichia coli DSM-12242 (NAL^R)
Protocol: as §4, §2

[10] = test system: Candida albicans DSM-1665; test: Susceptibility testing, MIC microdilution; conditions: Candida albicans DSM-1665
Protocol: as §4, §2

[11] = test system: Escherichia coli DSM-1116; test: Susceptibility testing, MIC microdilution; conditions: Escherichia coli DSM-1116
Protocol: as §4, §2

[12] = test system: Mycobacterium smegmatis mc^2155 ATCC700084; test: Susceptibility testing, MIC microdilution; conditions: Mycobacterium smegmatis mc^2155 ATCC700084
Protocol: as §4, §2

[13] = test system: Acinetobacter baumannii DSM-30008; test: Susceptibility testing, MIC microdilution; conditions: Acinetobacter baumannii DSM-30008
Protocol: as §4, §2

[14] = test system: Enterococcus faecalis ATCC29212; test: Susceptibility testing, MIC microdilution
Protocol: as §4, §2

[15] = test system: Burkholderia cenocepacia DSM-16553; test: Susceptibility testing, MIC microdilution; conditions: Burkholderia cenocepacia DSM-16553
Protocol: as §4, §2

[16] = test system: Streptococcus pneumoniae DSM-20566; test: Susceptibility testing, MIC microdilution; conditions: Streptococcus pneumoniae DSM-20566
Protocol: as §4, §2

[17] = test system: Staphylococcus aureus ATCC29213; test: Susceptibility testing, MIC microdilution
Protocol: as §4, §2

[18] = test system: Enterobacter aerogenes DSM-30053; test: Susceptibility testing, MIC microdilution; conditions: Enterobacter aerogenes DSM-30053
Protocol: as §4, §2

Bacillus subtilis DSM-10 = test: Susceptibility testing, MIC microdilution; conditions: Bacillus subtilis DSM-10
Protocol: as §4, §2

[19] = test system: Escherichia coli DSM-26863 (tolC3); test: Susceptibility testing, MIC microdilution; conditions: Escherichia coli DSM-26863 (tolC3)
Protocol: as §4, §2

[20] = test system: Escherichia coli ATCC25922; test: Susceptibility testing, MIC microdilution
Protocol: as §4, §2

[21] = test system: E. coli strain WT-3.2 (single-step gyrA mutation); test: Susceptibility of mutant E. coli strains, MIC; conditions: Escherichia coli WT-3.2 [gyrA(D87G)]
Text: (§5) Cystobactamides were screened using a panel of E. coli strains with typical mutations in gyrA and parC genes (Table 11).
as §4, §2

[22] = test system: E. coli strain WT-4 M2.1 (parC mutation); test: Susceptibility of mutant E. coli strains, MIC; conditions: Escherichia coli WT-4 M2.1 [parC(S801)]
Text: as §5, §4, §2

[23] = test system: E. coli strain MI (single-step gyrA mutation); test: Susceptibility of mutant E. coli strains, MIC; conditions: Escherichia coli MI [gyrA(S83L)]
Text: as §5, §4, §2

[24] = test system: Escherichia coli MI-4 [gyrA(S83L), parC(S801)]; test: Susceptibility of mutant E. coli strains, MIC
Text: as §5

E. coli WT = test: Susceptibility of mutant E. coli strains, MIC; conditions: Escherichia coli WT
Text: as §5
High-level quinolone resistance often results from a combination of several target site mutations and altered efflux mechanisms. […] This, in turn, leads to overproduction of MarA and AcrAB and overexpression of the AcrAB efflux pump is associated with the MAR (multiple antibiotic resistance) phenotype.^[5]
as §4, §2

[25] = test system: E. coli strain WT III (marR Δ74 bp); test: Susceptibility of mutant E. coli strains, MIC
Protocol: as §4, §2

[26] = test system: E. coli strain WT-3 (combination of both gyrA mutations); conditions: Escherichia coli WT-3 [gyrA(S83L, D87G)]
Text: as §5, §4
as §2, with “Cystobactamides and reference drugs were added directly to the cultures in sterile 96-well plates as duplicates and serial dilutions were prepared. Microorganisms were grown on a microplate shaker (750 rpm, 30-37° C., 18-48 h), except S. pneumonia, which was grown at non-shaking conditions (37° C., 5% CO2, 18 h).” left out

COC(C(=O)Nc1ccc(C(=O)Nc2ccc(C(=O)Nc3ccc(C(=O)O)cc3OC(C)C)c(O)c2OC(C)C)cc1)C(NC(=O)c1ccc(NC(=O)c2ccc([N+](=O)[O-])cc2)cc1)C(=O)O (stereo not shown) [cystobactamide B]
inhibition of pathogenic Gram-negative strains A. baumannii and P. aeruginosa (MIC range) ([1]; A. baumannii and P. aeruginosa): low μg/ml range
average potency on Gram-positive bacteria compared with ciprofloxacin ([1]; E. faecalis, S. aureus, S. pneumonia, average MIC): exceeded that of ciprofloxacin
GI50 [2]: > 50 µM
GI50 [3]: > 50 µM
MIC [4]: 14.7 µg/mL (≈ 16 µM)
MIC [5]: 0.23 µg/mL (≈ 0.25 µM)
MIC [6]: >59 µg/mL
MIC [7]: 1.8 µg/mL (≈ 1.95 µM)
MIC [8]: 14.7 µg/mL (≈ 16 µM)
MIC (Pichia anomala DSM-6766): >59 µg/mL
MIC [9]: 3.7 µg/mL (≈ 4.02 µM)
MIC [10]: >59 µg/mL
MIC [11]: 1.8 µg/mL (≈ 1.95 µM)
MIC [12]: >59 µg/mL
MIC [13]: 3.7 µg/mL (≈ 4.02 µM)
MIC [14]: 0.23 µg/mL (≈ 0.25 µM)
MIC [15]: >59 µg/mL
MIC [16]: 0.46 µg/mL (≈ 0.5 µM)
MIC [17]: 0.12 µg/mL (≈ 0.13 µM)
MIC [18]: >59 µg/mL
MIC (Bacillus subtilis DSM-10): 0.46 µg/mL (≈ 0.5 µM)
MIC [19]: 1.8 µg/mL (≈ 1.95 µM)
MIC [20]: 0.9 µg/mL (≈ 0.977 µM)
MIC [21]: 3.7 µg/mL (≈ 4.02 µM)
MIC [22]: 1.8 µg/mL (≈ 1.95 µM)
MIC [23]: 3.7 µg/mL (≈ 4.02 µM)
MIC [24]: 1.8 µg/mL (≈ 1.95 µM)
MIC (E. coli WT): 1.8 µg/mL
MIC, in words ([25]; E. coli WT III): in the μg/ml range
MIC ([25]; Escherichia coli WTIII [marRΔ74bp]): 3.7 µg/mL (≈ 4.02 µM)
MIC [26]: 7.4 µg/mL (≈ 8.04 µM)
